{
  "source": "patent US20070015830A1",
  "about": "“Use of a retinoid type compound to modulate in vivo the decoupling activity of the protein UCP2” (priority 1997, published 2007)",
  "key": {"UCP2 protein [1]": {"molecular_target": "T1, UCP2 protein (Mus musculus, UniProt P70406)", "T1 construct": "lacking the untranslated regions 5′ and 3′ is obtained by enzymatic amplification; expressed in transfected cells; host or cells: Saccharomyces cerevisiae diploid W303, vector pYeDP-1/8-10; isolated mitochondria", "T1 sequence (P70406 1-309)": "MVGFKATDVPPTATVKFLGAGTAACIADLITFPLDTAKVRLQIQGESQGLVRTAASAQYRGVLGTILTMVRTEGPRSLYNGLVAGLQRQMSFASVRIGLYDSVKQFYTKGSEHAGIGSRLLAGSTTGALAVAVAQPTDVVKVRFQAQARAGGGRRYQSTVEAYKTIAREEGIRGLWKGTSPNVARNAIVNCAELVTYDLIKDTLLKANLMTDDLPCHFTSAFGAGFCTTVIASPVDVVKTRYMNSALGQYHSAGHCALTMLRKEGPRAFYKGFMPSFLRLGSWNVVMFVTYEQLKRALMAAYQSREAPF", "assay": "Respiration stimulation factor in mitochondria of recombinant yeast expressing UCP2", "assay_type": "biochemical, mice", "details": "for activation of the activity of UCP2 protein: pH not stated", "text": "The effect of this type of compounds particularly on the activity of UCP2 protein, has been shown on a yeast model. The test consists in constructing yeast layers of recombinant Saccharomyces cervisiae yeasts being capable of expressing UCP2 protein, extracting UCP2 proteins from the mitochondria and measuring the activity of UCP2 protein in the presence or in the absence of retinoic acid. In the model which has been retained, the uncoupling activity of the UCP2 proteins is quantitatively measured by means of the factor of stimulation of respiration.\n(§1) This factor corresponds to the ratio of respiration and baseline respiration, measured or in the absence of retinoic acid (when measurements are made at a constant pH but varying the concentration of retinoic acid) or at pH 6.8 (when measurements are made at a given concentration of retinoic acid, but varying the pH).\n(§2) Respiration is determined by measurement of the quantity of consumed oxygen, expressed in nanomoles of oxygen per minute and milligram of mitochondrial proteins, the consumption of oxygen being directly linked to the quantity of substrate having been consumed by the mitochondria (in calories).\nThe cDNA of UCP2 proteins of mice (C. Fleury et al. (1997) Uncoupling protein-2: A novel gene linked to obesity and hyperinsulinaemia, Nature Genetics, 15, 269-272) lacking the untranslated regions 5′ and 3′ is obtained by enzymatic amplification with the following oligonucleotides:\nThe resulting DNA product is repaired with a Kleenow enzyme, thereafter cut with EcoRl and Sacl. This forces donation in the pYeDP-1/8-10 vector. In each case, the insertion of cDNA encoding for UCP2 protein in the pYeDP vector has been sequenced so as to verify that the encoding sequence had the expected properties. The UCP2-expressing pYeDP-YCP vector is introduced in a diploid W303 strain of Saccharomyces cervisiae yeast ([…]; ade2-10; his3-11,15; leu2-3,112; ura3-1; canl-100; trp-) by electroporation and the transformants are selected for their […].\nA process derived from that described by Guérin et al. (Guérin B., Labbe P. et Somlo, M. (1979) Methods Enzymol; 55, 149-159) is used. 36 hours before the extraction of the mitochondria a pre-culture in SP-medium (0.67% o nitrogenated yeast base, 0.1% KH2PO4, 0.12% (NH4)2SO4, 0.1% glucose, 2% lactic acid, 0.1% casaminoacids, 20 mg/l triptophane, 40 mg/1 adenine of pH 4.5), 10 or 12 hours before the extraction, a dilution in SP-medium (2% galactose, 0.67% nitrogenated yeast base, 0.1% casaaminoacids, 20 mg/l triptophane and […] adenine, at an optical density of 0.35-0.4).\nProtoplasts are prepared by enzymatic digestion with cytohelicase and the mitochondria are isolated by differential centrifugation after homogenization of the protoplasts obtained by enzymatic digestion of the cell wall.\nOnly quantitative measurement of mitochondrial respiration has been made for UCP2. This measurement is made at 20° C. in an oxygen-electrode chamber (Clark electrode) commercialized by the company HANSATECH. The incubation medium contains 0.65M mannitol, […] Tris/Maleate, 0.5 mM EGTA, 2 mM MgC12, 10 mMK2hpo4, 1 mg/ml ([…]) albumin pH6.8).\nMitochondria concentration is 0.15 mg/ml. NADH (3 mM) is used as substrate as mitochondria of Saccharomyces cervisiae are capable of oxidizing NADH of external origin).\nThe tests are performed varying any of the pH or the terinoïc acid concentration in the medium. The concentrations of free retinoic acid are esteemed up to some tens of nanomars (determined by fixing the molar ratio retinoic acid:albumin). The concentration of albumin is 0.1 mg/ml […]) in the respiration buffer and the tested pH are respectively 6.8; 7.1; 7.3 or 7.5. The further components of the buffer are identical to those in example 1 and in the same concentrations."}, "UCP2 protein [2]": {"molecular_target": "T1, UCP2 protein", "assay": "Respiration stimulation factor in mitochondria of recombinant yeast expressing UCP2", "assay_type": "biochemical, mice", "details": "FIG. 5; molar ratio acid:albumin 3:1 and 4:1"}, "UCP1 protein [3]": {"molecular_target": "T2, UCP1 protein (Rattus norvegicus, UniProt P04633)", "T2 construct": "The cDNA of the UCP1 protein which lacks the untranslated regions at 3′ and 5′ is obtained by enzymatic amplification; expressed in transfected cells; host or cells: Saccharomyces cerevisiae, vector pYeDP-1/8-10 (plasmid pYeDP-UCP+); isolated mitochondria", "T2 sequence (P04633 1-307)": "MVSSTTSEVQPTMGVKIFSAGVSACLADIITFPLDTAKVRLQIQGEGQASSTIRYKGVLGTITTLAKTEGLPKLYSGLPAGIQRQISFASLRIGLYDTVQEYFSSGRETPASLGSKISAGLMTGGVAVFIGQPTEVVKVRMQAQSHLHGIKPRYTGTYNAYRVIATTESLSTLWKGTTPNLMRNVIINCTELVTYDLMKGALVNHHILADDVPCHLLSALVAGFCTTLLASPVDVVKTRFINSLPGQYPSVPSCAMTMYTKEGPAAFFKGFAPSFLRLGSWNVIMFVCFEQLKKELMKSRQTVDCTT", "assay": "Membrane potential of yeast mitochondria expressing UCP1", "assay_type": "biochemical", "details": "FIG. 6b, molar ratio retinoic acid:albumin 2:1 and 4:1", "text": "There is also a qualitative method for determining the uncoupling activity of an UCP protein. It is the measurement of the mitochondrial membrane potential the reduction of which is an evidence of the decrease of the quality of the recovery of chemical energy at the level of the mitochondria. Activation of an uncoupling protein is reflected by de decrease of the membrane potential followed by an acceleration of the respiration.\nFIG. 6 evidences the variation in the membrane potentials and respiration of mitochondria in yeasts (reflecting the uncoupling activity of UCP1 protein) under the effect of the retinoic acid. The upper curve reflects oxygen consumption (expressed in nanomoles of oxygen per minute per milligram of mitochondrial proteins) and the lower curve the membrane potentials. […]\nThis activity may be measured qualitatively or quantitatively, with the help of the parameters: • qualitatively: • The mitochondrial membrane potential; the increase of the activity of an uncoupling protein is reflected by a reduction of the membrane potential and a resulting increase in oxygen consumption. In turn, the increase corresponds to an increase in dissipation of energy. • quantitatively: • mitochondrial respiration (oxygen consumption) which is linked directly to the quantity of substrate consumed by the mitochondria. […]"}, "UCP1 protein [4]": {"molecular_target": "T2, UCP1 protein", "assay": "Respiration stimulation factor in mitochondria of recombinant yeast expressing UCP1", "assay_type": "biochemical", "description": "as §1, §2\nFIG. 2 represents a curve of response of yeast mitochondria to retinoic acid. In the abscissa, there appears the molar ratio of retinoic acid/albumin (albumin concentration: 1 micromole within the medium); in the ordinate, there appears the factor of stimulation of the baseline respiration. FIG. 2a was obtained at pH 6.8 and figure at pH 7.3.\nThe construction of the expression vectors, the recombinant Saccharomyces cervisiae strains, the preparation of the mitochondria and the measurement of the activity of the UCP1 protein are described in the publication of Arechaga et al. already cited in example 1. […]"}, "[5]": {"system": "yeast mitochondria lacking UCP proteins", "assay": "Membrane potential of yeast mitochondria lacking UCP proteins (control)", "assay_type": "biochemical, Saccharomyces cervisiae", "details": "FIG. 6a", "text": "FIG. 6 evidences the variation in the membrane potentials and respiration of mitochondria in yeasts (reflecting the uncoupling activity of UCP1 protein) under the effect of the retinoic acid. The upper curve reflects oxygen consumption (expressed in nanomoles of oxygen per minute per milligram of mitochondrial proteins) and the lower curve the membrane potentials. FIG. 6a corresponds to measurements made in yeast mitochondria lacking UCP proteins and FIG. 6b corresponds to measurements made in yeast mitochondria wherein UCP1 protein is expressed. • N: designates the addition of NADH (respitation substrate) • R: designates the addition of retinoic acid (respectively at a molar ratio retinoic acid:albumin of 2:1 and 4:1) • G: designates the addition of 1 millimolar guanosine diphosphate (an inhibitor of UCP1 protein)."}},
  "note": "Entries after “also recorded” stand apart in the source; their conditions may differ.",
  "data": [
    {"smiles": "CC1=CC(=O)CC(C)(C)C1(O)/C=C/C(C)=C\\C(=O)O", "note": "(centres unmarked) [abscissic acid]", "values": [
      {"measurement": "activation of the activity of UCP2 protein", "setting": "UCP2 protein [1]", "value": "No activation"}
    ]},
    {"smiles": "CCCCC/C=C\\C/C=C\\C/C=C\\C/C=C\\CCCC(=O)O", "note": "[arachidonic acid]", "values": [
      {"measurement": "activation of the activity of UCP2 protein", "setting": "UCP2 protein [1]", "value": "No activation"}
    ]},
    {"smiles": "CCCCCCCCCCCCCCCC(=O)O", "note": "[palmitic acid]", "values": [
      {"measurement": "change of UCP2 activity with the pH and the increase of the concentration of palmitic acid", "setting": "UCP2 protein [2]", "value": "slight increase"},
      {"measurement": "activation of the activity of UCP2 protein", "setting": "UCP2 protein [1]", "value": "does not have any effect; also recorded: not the case"}
    ]},
    {"smiles": "CC1=C(/C=C/C(C)=C/C=C/C(C)=C/C(=O)O)C(C)(C)CCC1", "note": "[retinoic acid, all-trans retinoic acid]", "values": [
      {"measurement": "effect on mitochondrial membrane potential", "setting": "UCP1 protein [3]", "value": "induces a reduction of the membrane potential"},
      {"measurement": "change of the activity of UCP2 protein when the concentration of retinoic acid increases", "setting": "UCP2 protein [1]; molar ratio retinoic acid/albumin 3:1 vs 4:1, FIGS. 4a and 4b", "value": "slight increase"},
      {"measurement": "increase of the activity of UCP2 (respiration stimulation factor)", "setting": "UCP2 protein [1]; pH 6.8, FIG. 2a", "value": "no notable increase; also recorded: not the case"},
      {"measurement": "increase of the activity of UCP2 (respiration stimulation factor)", "setting": "UCP2 protein [1]; pH 7.3, FIG. 2b", "value": "the increase is very sensitive"},
      {"measurement": "activation of the activity of UCP2 protein", "setting": "UCP2 protein [1]", "value": "activates the dissipation of energy by UCP2"},
      {"measurement": "response of UCP1 protein (respiration stimulation factor)", "setting": "UCP1 protein [4]; pH 6.8, FIG. 2a", "value": "responds"},
      {"measurement": "response / uncoupling activity of UCP1 protein", "setting": "UCP1 protein [4]; pH not stated, FIG. 3a for palmitic acid", "value": "capable of increasing the uncoupling activity"},
      {"measurement": "effect on mitochondrial membrane potential", "setting": "[5]", "value": "not observed"}
    ]},
    {"smiles": "CC1=C(/C=C/C(C)=C/C=C/C(C)=C/CO)C(C)(C)CCC1", "note": "[retinol]", "values": [
      {"measurement": "activation of the activity of UCP2 protein", "setting": "UCP2 protein [1]", "value": "No activation"}
    ]},
    {"smiles": "O=C(O)c1ccccc1O", "note": "[salicylic acid]", "values": [
      {"measurement": "activation of the activity of UCP2 protein", "setting": "UCP2 protein [1]", "value": "No activation"}
    ]}
  ]
}
